Measured values as given in US20230391881A1, “COMPOSITIONS AND METHODS FOR OVERCOMING DR5-INDUCED IMMUNE EVASION BY SOLID TUMORS” (University of Virginia Patent Foundation, priority 2020, published 2023).

Tests used:
DR5 = DR5 knockout (DR5-KO) versus DR5-WT TNBC cells: viability, PD-L1, S5a, ubiquitin; type: cell-based, human; settings: for overall ubiquitin signal in lysates: DR5 sensitive versus DR5-KO cells (FIG. 2P)
Description: In Vitro Cell Viability Assays. Cell viability following Apo2L, lexatumumab, KMTR2, tigatuzumab, AMG-655, MD5-1, avelu-MD5, etc. treatments as indicated in the Figures either alone in combination with inhibitors (ROCK1, ERK, caspase inhibitors, etc.) or in combination with an anti-Fc reagent (For tigatuzumab, AMG-655, MD5-1, etc.) were determined using the ALAMARBLUE™ cell viability assays and MTT cell proliferation assays as per the manufacturer's protocols (ThermoFisher Scientific). Briefly, cells were treated with increasing concentration of various antibodies as indicated along with relevant positive and negative control antibodies for 6 hours, 24 hours, or 48 hours as indicated. For each cell killing assay the figures show the representative profiles from n=2-4 with different cultured confluency. Whenever used for immunoblotting, following antibodies treatment caspase-3 processing in tumor cells was monitored using selective antibodies that recognize cleaved human caspase-3 or total caspase-3 (Catalog Nos. 9661 and 9668; Cell Signaling Technology, Danvers, Massachusetts, United States of America). TRAIL-R2 receptor in oligomerization was determined using immunoblotting assays (Cell Signaling Technology Rabbit mAb, Catalog No. 8074). Cell viability was additionally examined by flow cytometry based apoptotic detection methods using 7-aminoactinomycin D (7-ADD) exclusion from live cells.
Western Blotting. Cells were cultured overnight in tissue culture-treated 6-well plates prior to treatment. After antibody treatment for 48 hours or another indicated time, cells were rinsed with PBS and then lysed with RIPA buffer supplemented with protease inhibitor cocktail (ThermoFisher Scientific). Centrifugation at 14000 rpm for 30 minutes cleared lysates and protein was quantified by PIERCE™ BCA Protein Assay Kit (ThermoFisher Scientific). Western blotting was performed using the Bio-Rad SDS-PAGE Gel system. Briefly, 30 μg of protein was resolved on 10% Bis-Tris gels and then transferred onto PVDF membrane. Membranes were blocked for one hour at room temperature in TBS+0.1% Tween (TBST) with 5% non-fat dry milk. Membranes were probed overnight at 4° C. with primary antibodies. Membranes were washed three times in TBST and then incubated with anti-rabbit or anti-mouse secondary antibodies (1/10,000 dilution, coupled to peroxidase) for 1 hour at room temperature. Membranes were then washed three times with TBST and immunocomplexes were detected with SUPERSIGNAL™ West Pico Chemiluminescent Substrate (ThermoFisher Scientific). […]
Flow cytometry. The cell surface expression of PD-L1, CD47, huDR5, muDR5, CD8, CD4, CD25 etc. was analyzed by flow cytometry. […] The data was analyzed by FCS Express (De Novo Software, Los Angeles, California, United States of America) and FlowJo. […]

[1] = system: DR5-KO (MDA-MB-231) cells; test: ApoEV isolation and PD-L1 transfer to DR5-KO cells; type: cell-based, human; settings: ApoEVs from treated DR5-WT cells
Description: FIG. 12. TNF-α stabilized PD-L1 is not shuttled to ApoEVs. ApoEVs were isolated from DR5-WT MDA-MB-436 and OVCAR-3 cells after treatment with IgG1, TNF-α and lexatumumab. Isolated ApoEVs were incubated on to DR5-KO (MDA-MB-231) cells. After 24 hours surface PD-L1 of DR5-KO cells was analyze by flow cytometry. Top panel show secondary antibody control, IgG1 treatment control and basal level PD-L1 levels on MDA-MB-231 DR5 KO cells.
ApoEV isolation. 4×10^6 cells were seeded onto 3×150 mm dishes in a total volume of 45 ml of DMEM supplemented with 10% exosome-free FBS and grown for 12 hours. Media of each plate was changed with serum-free medium and incubate the cells at 37° C. for 6-12 hours, with or without various antibody treatments. For all ApoEV studies, the tissue culture media was spun at 8000×g for 15 minutes. The pellet was discarded and the supernatants (SN) were passed through 0.22 um filter. ApoEVs were isolated by the ultracentrifugation method. Collected tissue culture media was spun at 5,000×g for 10 minutes to remove contaminating cellular particles, and the resulting supernatant was spun at 80,000×g for 4 hours at 4° C. to pellet ApoEVs. ApoEV pellets were resuspended in 500 μl of serum-free medium and were used for either cellular treatments, dot blots assays and immunoblotting assays.

PD-L1 = test: Western blotting / flow cytometry of PD-L1 and regulators in tumor cells; type: cell-based, human; settings: ovarian and TNBC tumor cells
Description: Western Blotting. Cells were cultured overnight in tissue culture-treated 6-well plates prior to treatment. After antibody treatment for 48 hours or another indicated time, cells were rinsed with PBS and then lysed with RIPA buffer supplemented with protease inhibitor cocktail (ThermoFisher Scientific). Centrifugation at 14000 rpm for 30 minutes cleared lysates and protein was quantified by PIERCE™ BCA Protein Assay Kit (ThermoFisher Scientific). Western blotting was performed using the Bio-Rad SDS-PAGE Gel system. Briefly, 30 μg of protein was resolved on 10% Bis-Tris gels and then transferred onto PVDF membrane. Membranes were blocked for one hour at room temperature in TBS+0.1% Tween (TBST) with 5% non-fat dry milk. Membranes were probed overnight at 4° C. with primary antibodies. Membranes were washed three times in TBST and then incubated with anti-rabbit or anti-mouse secondary antibodies (1/10,000 dilution, coupled to peroxidase) for 1 hour at room temperature. Membranes were then washed three times with TBST and immunocomplexes were detected with SUPERSIGNAL™ West Pico Chemiluminescent Substrate (ThermoFisher Scientific). Images were taken using a Bio-Rad Gel Doc Imager system.
(§1) Flow cytometry. The cell surface expression of PD-L1, CD47, huDR5, muDR5, CD8, CD4, CD25 etc. was analyzed by flow cytometry. Overnight grown tumors were trypsinized and suspended in FACS buffer (PBS containing 2% FBS). Single cell suspensions were then incubated with primary DR4/DR5 antibodies for 1 hour at 4° C. with gentle mixing. Following wash with FACS buffer, the cells were then incubated with fluorescently labeled anti-Rabbit antibody for 1 hour. Cells were washed and flow cytometry was performed using a BD FACSCALIBUR™ flow cytometer. The data was analyzed by FCS Express (De Novo Software, Los Angeles, California, United States of America) and FlowJo.

UCD52 TNBC PDX tumors = test: PD-L1 IHC of KMTR2 treated UCD52 TNBC PDX tumors; type: in vivo, mouse; settings: KMTR2 50 μg, 4 doses; NSG mice
MDA-MB-436 cells = test: Flow cytometry of surface PD-L1 on tumor cells treated with DR5 agonist antibodies (FIG. 20B); type: cell-based, human
Description: FIGS. 20A-20C. (FIG. 20A) 3 biological replicates of total PD-L1 and GAPDH from triple negative breast cancer cell (MDAMB-436) and ovarian cell (OVCAR-3) lysates treated with lexatumumab for 6 hours. (FIG. 20B) Raw mean fluorescent intensity (MFI) and % positive PD-L1 counts from the cells treated with indicated DR5 agonist antibodies. MFI values are shown on the top of solid color bars. There are multiple instances (shown on the top) where despite having lower % positive PD-L1 population, MFI values were higher after indicated DR5 agonist treatments. As an example, in MDA-MB-436 cells treated with tigatuzumab and lexatumumab, lexatumumab treated cells had higher % positive PD-L1 population (9.32 vs 11.97), however MFI was higher in tigatuzumab treated population (107.54 vs 45.87). (FIG. 20C) KMTR2 treated (50 μg, 4 doses) UCD52 TNBC PDX tumors were stained for PD-L1 using immunohistochemistry (IHC). 3 additional representative images are shown. Also see FIG. 1L.
as §1
PD-L1 surface expression analysis of tumor derived cells. The cell surface expression of PD-L1 from tumor-derived cell was analyzed by flow cytometry. Isolated cells were suspended in FACS buffer (PBS containing 1% FBS). The single cell suspension was then incubated with primary PD-L1 antibodies (1:400 dilution) for 1 hour at 4° C. with gentle mixing. […] Following 3 times wash with FACS buffer, the cells were then incubated with fluorescently labeled (alexa 488) anti-Rabbit secondary antibody for 1 hour. Cells were then washed 3-4 times with FACS buffer and flow cytometry was performed using BD FACSCALIBUR™. The data was analyzed by FCS Express (De Novo Software) and FlowJo software.

[2] = system: chi-G4S-DR5 stable 4T1 tumors; test: Surface PD-L1 flow cytometry of cells recovered from Chi-G4S-DR5 stable 4T1 tumors; type: in vivo, mouse; settings: 4 doses; flow cytometry of recovered tumors (FIGS. 5G, 23)
Description: Mechanical dissociation of tumors to obtain single-cell suspensions. Viable single cells from tumor tissues were isolated as described in Leelatian et al, 2017. Briefly, after indicated antibody treatments (4-6 doses) mice were euthanized and tumors were harvested using sterile scissors and forceps. After excision of tumor, they were minced into small pieces in sterile RPMI-1640 media using two single-edged razor blades. Small tumor pieces were passed through a 70 µm cell strainer in sterile RPMI-1640 media. A rubber plunger and syringe were used to mesh the dissociated cells through the cell strainer and media containing dissociated cells was collected onto a sterile labeled conical tube. Dissociated tumor cells were subjected to flow cytometry (FACS) analysis for PD-L1, DR5, N-cadherin, FOLR1, CD47 etc. surface expression as described under flow cytometry protocol.
PD-L1 surface expression analysis of tumor derived cells. The cell surface expression of PD-L1 from tumor-derived cell was analyzed by flow cytometry. Isolated cells were suspended in FACS buffer (PBS containing 1% FBS). […] The data was analyzed by FCS Express (De Novo Software) and FlowJo software.
Chimeric DR5 cloning and Human DR5 agonist testing studies in Balb/c animals. […] Tumors were monitored as described herein above. […]

Chain of DR5 (O14763 56-184 limits assumed): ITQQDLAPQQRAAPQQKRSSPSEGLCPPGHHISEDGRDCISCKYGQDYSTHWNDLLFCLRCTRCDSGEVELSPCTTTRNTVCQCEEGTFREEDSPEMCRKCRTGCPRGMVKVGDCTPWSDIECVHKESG

Substance | PD-L1 stabilization / surface mobilization in DR5-KO lines (DR5; DR5-KO compared to DR5-WT cells) | S5a/PSMD4 levels (DR5; MDA-MB-436 WT and DR5-KO cells) | PD-L1 in ApoEVs / shuttling of PD-L1 via ApoEVs [1] | PD-L1 and CSN5 stabilization in lysates (PD-L1) | PD-L1 stabilization by IHC (UCD52 TNBC PDX tumors) | overall ubiquitin signal in lysates (DR5) | PD-L1 mean fluorescent intensity (MFI) (MDA-MB-436 cells; MDA-MB-436 cells treated with DR5 agonist antibody (FIG. 20B)) | % positive PD-L1 population (MDA-MB-436 cells; MDA-MB-436 cells treated with DR5 agonist antibody, raw flow cytometry counts (FIG. 20B)) | PD-L1 on cell surface of tumor cells [2]
TNF-α | remained unchanged | stabilized PD-L1 without affecting S5a levels | did not shuttle significant amount of PD-L1 via ApoEVs | stabilized both PD-L1 and CSN5 | – | – | – | – | –
KMTR2: Monospecific Antibody, Human DR5 activator; VL and VH SEQ ID NOs: 7 and 8 | – | – | – | – | PD-L1 stabilization was also confirmed | increased only in DR5 sensitive cell lysates | – | – | –
lexatumumab: Monospecific Antibody, Human DR5 activator; VL and VH SEQ ID NOs: 1 and 2 | – | – | – | – | – | increased only in DR5 sensitive cell lysates | 45.87 | 11.97% | higher overall PD-L1 on cell surface
